Biological target: human MTP (Homo sapiens, UniProt P55157)
Test: human MTP activity assay (SPA, 3H-triolein transfer between liposomes)
Type: biochemical
Conditions: MTP-mediated 3H-triolein transfer from donor to acceptor liposomes, 25 min at 37° C., streptavidin-SPA beads
Description: The ability of the compounds of this invention to inhibit human MTP activity is measured by an in vitro assay where MTP tranfers 3H-triolein between phosphatidylcholine liposomes. The specificity of the compounds of the invention is established by comparing the effects on apoB-100 and apoprotein A-1 production. A specificity of at least 100 is preferred.
The human MTP activity assay was established using SPA technology. Donor liposomes were prepared with 3H-triolein and phosphatidylcholine, while acceptor liposomes contained biotinylated phosphatidylethanolamine and phosphatidylcholine. The MTP-mediated 3H-triolein transfer onto acceptor liposomes was allowed by a 25 min incubation at 37° C., and quantified by the addition of streptavidin-SPA beads.

human MTP, sequence (P55157 19-894): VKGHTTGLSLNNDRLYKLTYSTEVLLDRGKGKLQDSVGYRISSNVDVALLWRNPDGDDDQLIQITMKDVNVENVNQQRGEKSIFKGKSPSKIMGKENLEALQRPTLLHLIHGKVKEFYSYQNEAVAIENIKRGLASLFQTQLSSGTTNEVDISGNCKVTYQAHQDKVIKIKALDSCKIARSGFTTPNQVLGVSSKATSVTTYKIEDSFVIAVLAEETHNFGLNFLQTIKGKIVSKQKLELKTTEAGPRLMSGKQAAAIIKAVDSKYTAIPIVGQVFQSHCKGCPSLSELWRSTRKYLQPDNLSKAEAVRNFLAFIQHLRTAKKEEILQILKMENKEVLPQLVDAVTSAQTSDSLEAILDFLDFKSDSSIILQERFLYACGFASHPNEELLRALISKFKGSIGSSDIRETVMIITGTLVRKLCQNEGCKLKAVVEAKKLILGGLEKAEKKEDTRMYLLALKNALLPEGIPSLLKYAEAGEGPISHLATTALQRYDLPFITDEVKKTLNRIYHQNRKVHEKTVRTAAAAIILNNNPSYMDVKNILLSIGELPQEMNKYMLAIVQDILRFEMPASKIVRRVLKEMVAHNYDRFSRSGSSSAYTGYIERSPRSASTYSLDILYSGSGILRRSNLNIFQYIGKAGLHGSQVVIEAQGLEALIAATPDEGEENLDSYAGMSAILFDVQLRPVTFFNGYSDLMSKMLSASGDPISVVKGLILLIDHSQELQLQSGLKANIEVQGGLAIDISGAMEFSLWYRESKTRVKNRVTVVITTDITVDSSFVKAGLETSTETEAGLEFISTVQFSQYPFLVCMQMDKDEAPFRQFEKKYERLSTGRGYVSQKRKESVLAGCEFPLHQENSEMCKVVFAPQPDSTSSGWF
human MTP, sequence (P07237 18-508 partner): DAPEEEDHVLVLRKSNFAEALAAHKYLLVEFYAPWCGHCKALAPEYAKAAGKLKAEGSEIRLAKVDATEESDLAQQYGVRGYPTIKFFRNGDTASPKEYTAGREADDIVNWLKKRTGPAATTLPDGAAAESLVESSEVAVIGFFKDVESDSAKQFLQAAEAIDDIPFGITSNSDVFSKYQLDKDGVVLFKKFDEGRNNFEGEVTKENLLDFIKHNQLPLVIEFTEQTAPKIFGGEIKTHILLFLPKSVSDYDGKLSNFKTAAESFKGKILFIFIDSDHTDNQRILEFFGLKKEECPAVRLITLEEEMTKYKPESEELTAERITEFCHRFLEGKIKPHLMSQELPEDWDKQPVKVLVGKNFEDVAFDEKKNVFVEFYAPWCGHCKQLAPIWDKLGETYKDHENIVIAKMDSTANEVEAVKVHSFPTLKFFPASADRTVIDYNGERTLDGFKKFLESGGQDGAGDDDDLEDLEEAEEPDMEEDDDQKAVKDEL

Row | IC50 [nM] | SMILES
1 | 0.1 | Cc1cccc(C(=O)Nc2ccc(N3CCN(Cc4ccc[nH]4)CC3)nc2)c1-c1ccc(C(C)C)cc1 [Example 5, 4′-Isopropyl-6-methyl-biphenyl-2-carboxylic acid [2-(4-(1H-pyrrol-2-ylmethyl)piperazin-1-yl)-pyridin-5-yl]-amide]
2 | 0.16 | CC(C)c1ccc(-c2c(C(=O)Nc3ccc(N4CCN(Cc5cccc(C#N)c5)CC4)nc3)cccc2C(C)C)cc1 [Example 15, 4′,6-Diisopropyl-biphenyl-2-carboxylic acid [2-(4-(3-cyano-benzyl)-piperazin-1-yl)-pyridin-5-yl]-amide]
3 | 0.3 | Cc1cccc(C(=O)Nc2ccc(N3CCN(CC(N)=O)CC3)nc2)c1-c1ccc(C(C)C)cc1 [Example 1, 4′-Isopropyl-6-methyl-biphenyl-2-carboxylic acid [2-(4-carbamoylmethyl-piperazin-1-yl)-pyridin-5-yl]-amide]

Row | SMILES | IC50 [nM]
4 | C=CCN1CCN(c2ccc(NC(=O)c3cccc(C(C)C)c3-c3ccc(C(C)C)cc3)cn2)CC1 [Example 25] | < 0.1

System: not given
Test: not given
Conditions: not given

Row | melting point [°C] | SMILES
5 | 158 to 160 | Cc1ccc(C(=O)Nc2ccc(N3CCN(Cc4cccc(C#N)c4)CC3)nc2)c(-c2ccc(C(F)(F)F)cc2)c1 [Example 22, 5-Methyl-4′-trifluoromethyl-biphenyl-2-carboxylic acid [2-(4-(3-cyano-benzyl)-piperazin-1-yl)-pyridin-5-yl]-amide]
6 | 164 to 166 | Cc1cccc(C(=O)Nc2ccc(N3CCN(Cc4cccc(C#N)c4)CC3)nc2)c1-c1ccc(C(F)(F)F)cc1 [Example 20, 6-Methyl-4′-trifluoromethyl-biphenyl-2-carboxylic acid [2-(4-(3-cyano-benzyl)-piperazin-1-yl)-pyridin-5-yl]-amide]
7 | 150 to 152 | Cc1noc(-c2cccc(CN3CCN(c4ccc(NC(=O)c5cccc(C)c5-c5ccc(C(C)C)cc5)cn4)CC3)c2)n1 [Example 10, 4′-Isopropyl-6-methyl-biphenyl-2-carboxylic acid [2-(4-(3-(3-methyl-[1,2,4]oxadiazol-5-yl)-benzyl)-piperazin-1-yl)-pyridin-5-yl]-amide]
8 | 126 to 128 | CCCN1CCN(c2ccc(NC(=O)c3cccc(C(C)C)c3-c3ccc(C(C)C)cc3)cn2)CC1 [Example 23, 4′,6-Diisopropyl-biphenyl-2-carboxylic acid-[2-(4-propyl-piperazin-1-yl)-pyridin-5-yl]-amide]
9 | 125 | Cc1noc(-c2cccc(CN3CCN(c4ccc(NC(=O)c5cccc(C(C)C)c5-c5ccc(C(C)C)cc5)cn4)CC3)c2)n1 [Example 13, 4′,6-Diisopropyl-biphenyl-2-carboxylic acid [2-(4-(3-(3-methyl-[1,2,4]oxadiazol-5-yl)-benzyl)-piperazin-1-yl)-pyridin-5-yl]-amide]
10 | 152 to 154 | CC(C)c1ccc(-c2c(C(=O)Nc3ccc(N4CCN(C)CC4)nc3)cccc2C(C)C)cc1 [Example 24, 4′,6-Diisopropyl-biphenyl-2-carboxylic acid-[2-(4-methyl-piperazin-1-yl)-pyridin-5-yl]-amide]
11 | 194 to 196 | COc1cccc(C(=O)Nc2ccc(N3CCN(Cc4cccc(C#N)c4)CC3)nc2)c1-c1ccc(C(C)C)cc1 [Example 18, 4′-Isopropyl-6-methoxy-biphenyl-2-carboxylic acid [2-(4-(3-cyano-benzyl)-piperazin-1-yl)-pyridin-5-yl]-amide]
12 | 197 to 199 | COc1cccc(C(=O)Nc2ccc(N3CCN(Cc4ccc[nH]4)CC3)nc2)c1-c1ccc(C(C)C)cc1 [Example 7, 4′-Isopropyl-6-methoxy-biphenyl-2-carboxylic acid [2-(4-(1H-pyrrol-2-ylmethyl)piperazin-1-yl)-pyridin-5-yl]-amide]
13 | 169 | CC(C)c1ccc(-c2c(C(=O)Nc3ccc(N4CCN(CC(N)=O)CC4)nc3)cccc2C(C)C)cc1 [Example 4, 4′,6-Diisopropyl-biphenyl-2-carboxylic acid [2-(4-carbamoylmethyl-piperazin-1-yl)-pyridin-5-yl]-amide]
14 | 130 | Cc1cccc(C(=O)Nc2ccc(N3CCN(Cc4ccc[nH]4)CC3)nc2)c1-c1ccc(C(C)C)cc1 [Example 5, 4′-Isopropyl-6-methyl-biphenyl-2-carboxylic acid [2-(4-(1H-pyrrol-2-ylmethyl)piperazin-1-yl)-pyridin-5-yl]-amide]
15 | 154 to 156 | Cc1cccc(C(=O)Nc2ccc(N3CCN(Cc4cccc(C#N)c4)CC3)nc2)c1-c1ccc(C(C)C)cc1 [Example 19, 4′-Isopropyl-6-methyl-biphenyl-2-carboxylic acid [2-(4-(3-cyano-benzyl)-piperazin-1-yl)-pyridin-5-yl]-amide]
16 | 151 | CC(C)c1ccc(-c2c(C(=O)Nc3ccc(N4CCN(Cc5cccc(C#N)c5)CC4)nc3)cccc2C(C)C)cc1 [Example 15, 4′,6-Diisopropyl-biphenyl-2-carboxylic acid [2-(4-(3-cyano-benzyl)-piperazin-1-yl)-pyridin-5-yl]-amide]
17 | 210 to 212 | COc1cccc(C(=O)Nc2ccc(N3CCN(CC(N)=O)CC3)nc2)c1-c1ccc(C(C)C)cc1 [Example 3, 4′-Isopropyl-6-methoxy-biphenyl-2-carboxylic acid [2-(4-carbamoylmethyl-piperazin-1-yl)-pyridin-5-yl]-amide]
18 | 200 to 202 | Cc1cccc(C(=O)Nc2ccc(N3CCN(CC(N)=O)CC3)nc2)c1-c1ccc(C(C)C)cc1 [Example 1, 4′-Isopropyl-6-methyl-biphenyl-2-carboxylic acid [2-(4-carbamoylmethyl-piperazin-1-yl)-pyridin-5-yl]-amide]
19 | 168 | N#Cc1cccc(CN2CCN(c3ccc(NC(=O)c4ccccc4-c4ccc(C(F)(F)F)cc4)cn3)CC2)c1 [Example 17, 4′-Trifluoromethyl-biphenyl-2-carboxylic acid [2-(4-(3-cyano-benzyl)-piperazin-1-yl)-pyridin-5-yl]-amide]
20 | 161 to 163 | Cc1ccc(C(=O)Nc2ccc(N3CCN(Cc4cccc(C#N)c4)CC3)nc2)c(-c2ccc(C(C)C)cc2)c1 [Example 21, 4′-Isopropyl-5-methyl-biphenyl-2-carboxylic acid [2-(4-(3-cyano-benzyl)-piperazin-1-yl)-pyridin-5-yl]-amide]
21 | 124 | C=C(C)N1CCN(c2ccc(NC(=O)c3cccc(C(C)C)c3-c3ccc(C(C)C)cc3)cn2)CC1 [Example 25, 4′,6-Diisopropyl-biphenyl-2-carboxylic acid-[2-(4-(propen-2-yl)-piperazin-1-yl)-pyridin-5-yl]-amide]
22 | 192 to 194 | Cc1noc(-c2cccc(CN3CCN(c4ccc(NC(=O)c5ccccc5-c5ccc(C(F)(F)F)cc5)cn4)CC3)c2)n1 [Example 9, 4′-Trifluoromethyl-biphenyl-2-carboxylic acid [2-(4-(3-(3-methyl-[1,2,4]oxadiazol-5-yl)-benzyl)-piperazin-1-yl)-pyridin-5-yl]-amide]
23 | 142 to 144 | Cc1cccc(C(=O)Nc2ccc(N3CCN(Cc4ccc[nH]4)CC3)nc2)c1-c1ccc(C(F)(F)F)cc1 [Example 6, 6-Methyl4′-trifluoromethyl-biphenyl-2-carboxylic acid [2-(4-(1H-pyrrol-2-ylmethyl)piperazin-1-yl)-pyridin-5-yl]-amide]
24 | 136 to 138 | COc1cccc(C(=O)Nc2ccc(N3CCN(Cc4cccc(-c5nc(C)no5)c4)CC3)nc2)c1-c1ccc(C(C)C)cc1 [Example 12, 4′-Isopropyl-6-methoxy-biphenyl-2-carboxylic acid [2-(4-(3-(3-methyl-[1,2,4]oxadiazol-5-yl)-benzyl)-piperazin-1-yl)-pyridin-5-yl]-amide]
25 | 136 | CC(C)c1ccc(-c2c(C(=O)Nc3ccc(N4CCN(C(C)C)CC4)nc3)cccc2C(C)C)cc1 [Example 26, 4′,6-Diisopropyl-biphenyl-2-carboxylic acid-[2-(4-(isopropyl)-piperazin-1-yl)-pyridin-5-yl]-amide]
26 | 149 | O=C(Nc1ccc(N2CCN(Cc3ccco3)CC2)nc1)c1ccccc1-c1ccc(C(F)(F)F)cc1 [Example 14, 4′-Trifluoromethyl-biphenyl-2-carboxylic acid [2-(4-(furan-2-ylmethyl)piperazin-1-yl)-pyridin-5-yl]-amide]
27 | 180 to 181 | Cc1cccc(C(=O)Nc2ccc(N3CCN(CC(N)=O)CC3)nc2)c1-c1ccc(C(F)(F)F)cc1 [Example 2, 6-Methyl-4′-trifluoromethyl-biphenyl-2-carboxylic acid [2-(4-carbamoylmethyl-piperazin-1-yl)-pyridin-5-yl]-amide]

From patent publication US20040009988A1 (priority 2000, published 2004)
